# Data as given in article PMC9486541, “Design, synthesis and cytotoxic evaluation of novel betulonic acid-diazine derivatives as potential antitumor agents” (Frontiers in Chemistry, 2022).
# Like-named read-outs stand apart in the source and are kept apart here.
# Columns and labels:
# MCF-7 = assay: MTT assay, MCF-7 cells; format: cell-based, human; details: read-out: Half maximal inhibitory concentration (IC50) values, MCF-7
# Description: (§1) The human hepatocellular carcinoma cell line (HepG2), human hepatocellular carcinoma cell line (Bel-7402), human cervical cancer cell line (Hela), human breast adenocarcinoma cell line (MCF-7) and Madin-Darby canine kidney cell line (MDCK) were obtained from the Chinese Academy of Medical Sciences and Peking Union Medical College. Cultures were maintained as monolayer in RPMI-1640/DMEM supplemented with 10% (v/v) fetal bovine serum (FBS) and 1% (v/v) penicillin/streptomycin (Thermo Technologies, New York, NY, United States) under a humidified atmosphere containing 5% CO2 at 37°C. The BoA derivatives and positive control drugs (BoA and DDP) under study were dissolved in DMSO (Sigma, St. Louis, MO, United States) and added at required concentrations to the cell culture. Cells incubated without the preparations served as the control.
# (§2) The antitumor activity was assessed by MTT assay, as previously reported ([Fang et al., 2018]). Each tested compound and positive control drugs were dissolved in DMSO and diluted with the medium to the test concentrations, and the final concentration of DMSO in the culture medium was controlled at less than 0.5% (v/v). Briefly, cells were cultured at 37°C and dispersed in replicates in 96-well plates with HepG2, Bel-7402, HeLa, MCF-7 and MDCK for 24 h. Fresh medium along with compounds (BoAA-BoAE, BoA2A-BoA2G, BoA3A-BoA3G, BoA4A-BoA4G) at different concentrations was then added to individual wells and incubated for 72 h, with BoA and DDP as the positive control. Experiments on FXR expression were separated into three groups: Control (PBS), BoA2C (8 μM), and BoA2C (8 μM) + DY268 (10 μM) ([Giordano et al., 2016]), with three repeating wells in each. In separate wells, BoA2C and DY268 were introduced and cultured for 72 h. After 72 h, the cell was incubated with MTT solution (0.5 mg/ml) for an additional 4 h at 37°C. The produced formazan crystals were solubilized with DMSO, and the optical density of solution was measured at 570 nm using a plate reader (BIORAD 550 spectrophotometer, Bio-rad Life Science Development Ltd., Beijing, China). Wells without drugs were used to be blanks. The IC50 values were defined as the concentration of compounds that produced a 50% proliferation inhibition of surviving cells and calculated using the Graph Pad Prism 5. The inhibitory rate was calculated in the following Equation 1, where OD is the optical density: % inhibition=[1−(OD Sample group−OD Blank group)/(OD Control group−OD Blank group)]×100% (1)
# MDCK = assay: MTT assay, MDCK normal cell line; format: cell-based, canine; details: 72 h incubation, normal cell line, read-out: Half maximal inhibitory concentration (IC50) values, MDCK
# Description: as §1, §2
# Hela = assay: MTT assay, Hela cells; format: cell-based, human; details: 72 h incubation, read-out: Half maximal inhibitory concentration (IC50) values, Hela
# Description: as §1, §2
# Bel-7402 = assay: MTT assay, Bel-7402 cells; format: cell-based, human; details: read-out: Half maximal inhibitory concentration (IC50) values, Bel-7402
# Description: as §1, §2
# HepG2 = assay: MTT assay, HepG2 cells; format: cell-based, human; details: read-out: Half maximal inhibitory concentration (IC50) values, HepG2
# Description: as §1, §2
# [1] = Homo sapiens, MCF7, 72 h incubation
# [2] = Homo sapiens, Bel-7402, 72 h incubation
# [3] = Homo sapiens, HepG2, 72 h incubation
Structure (SMILES),IC50 (MCF-7; [1]) [µM],"IC50 (MDCK; Canis lupus familiaris, MDCK) [µM]","IC50 (Hela; Homo sapiens, HeLa) [µM]",IC50 (Bel-7402; [2]) [µM],melting point [°C],IC50 (HepG2; [3]) [µM],IC50 (MCF-7; 72 h incubation) [µM],IC50 (MDCK) [µM],IC50 (Hela) [µM],IC50 (Bel-7402; 72 h incubation) [µM],IC50 (HepG2; 72 h incubation) [µM]
C=C(C)[C@@H]1CC[C@]2(C(=O)OCCCOC(=O)c3ccnnc3)CC[C@]3(C)[C@H](CC[C@@H]4[C@@]5(C)CCC(=O)C(C)(C)[C@@H]5CC[C@]43C)[C@@H]12 [BoA3G],13.4 ± 0.51,18.5 ± 0.42,4 ± 0.32,25.2 ± 2.44,68 to 71,> 30,,,,,
C=C(C)[C@@H]1CC[C@]2(C(=O)OCCCCOC(=O)c3ccncn3)CC[C@]3(C)[C@H](CC[C@@H]4[C@@]5(C)CCC(=O)C(C)(C)[C@@H]5CC[C@]43C)[C@@H]12 [BoA4F],24.5 ± 5.17,27.22 ± 0.25,25.9 ± 0.57,> 30,,30.2 ± 1.51,,,,,
"C=C(C)[C@@H]1CC[C@]2(C(=O)OCCCCOC(=O)c3cnc(C)cn3)CC[C@]3(C)[C@H](CC[C@@H]4[C@@]5(C)CCC(=O)C(C)(C)[C@@H]5CC[C@]43C)[C@@H]12 [BoA4C, (5-Methylpyrazin-2-acyloxy)-butyl-3-oxolup-20(29)-en-28-oate]",9.88 ± 1.49,> 30,17.9 ± 0.45,5.53 ± 0.46,,22.2 ± 1.76,,,,,
"C=C(C)[C@@H]1CC[C@]2(C(=O)OCCCOC(=O)c3cnc(C)cn3)CC[C@]3(C)[C@H](CC[C@@H]4[C@@]5(C)CCC(=O)C(C)(C)[C@@H]5CC[C@]43C)[C@@H]12 [BoA3C, (5-Methylpyrazin-2-acyloxy)-propyl-3-oxolup-20(29)-en-28-oate]",10 ± 0.19,> 30,30 ± 2.65,9.37 ± 1.31,57 to 58,> 30,,,,,
"C=C(C)[C@@H]1CC[C@]2(C(=O)OCCOC(=O)c3cncc(C)n3)CC[C@]3(C)[C@H](CC[C@@H]4[C@@]5(C)CCC(=O)C(C)(C)[C@@H]5CC[C@]43C)[C@@H]12 [BoA2D, (6-Methylpyrazin-2-acyloxy)-ethyl-3-oxolup-20(29)-en-28-oate]",8.32 ± 1.28,> 30,14.9 ± 1.84,8.22 ± 0.43,139 to 141,7.32 ± 2.88,,,,,
"N.N.[Cl][Pt][Cl] [DDP, cisplatin, reference compound]",,,,,,,6.98 ± 0.32,13.7 ± 1.45,9.84 ± 2.54,8.86 ± 1.32,5.23 ± 1.03
C=C(C)[C@@H]1CC[C@]2(C(=O)OCCOC(=O)c3ccnnc3)CC[C@]3(C)[C@H](CC[C@@H]4[C@@]5(C)CCC(=O)C(C)(C)[C@@H]5CC[C@]43C)[C@@H]12 [BoA2G],> 30,13 ± 0.46,5.81 ± 0.24,24.8 ± 2.43,130 to 132,> 30,,,,,
"C=C(C)[C@@H]1CC[C@]2(C(=O)O)CC[C@]3(C)[C@H](CC[C@@H]4[C@@]5(C)CCC(=O)C(C)(C)[C@@H]5CC[C@]43C)[C@@H]12 [BoA, betulonic acid]",> 30,> 30,27 ± 1.06,> 30,,> 30,,,,,
"C=C(C)[C@@H]1CC[C@]2(C(=O)OCCCOC(=O)c3nc(C)c(C)nc3C)CC[C@]3(C)[C@H](CC[C@@H]4[C@@]5(C)CCC(=O)C(C)(C)[C@@H]5CC[C@]43C)[C@@H]12 [BoA3E, (3,5,6-Trimethylpyrazin-2-acyloxy)-propyl-3-oxolup-20(29)-en-28-oate]",29.5 ± 0.89,> 30,10.1 ± 0.15,11.2 ± 1.55,57 to 59,20.2 ± 0.53,,,,,
"C=C(C)[C@@H]1CC[C@]2(C(=O)OCCCCOC(=O)c3cnccn3)CC[C@]3(C)[C@H](CC[C@@H]4[C@@]5(C)CCC(=O)C(C)(C)[C@@H]5CC[C@]43C)[C@@H]12 [BoA4A, (Pyrazin-2-acyloxy)-butyl-3-oxolup-20(29)-en-28-oate]",9.13 ± 0.4,25.3 ± 4.14,13.82 ± 0.12,9.39 ± 0.73,69 to 71,12.9 ± 4,,,,,
"C=C(C)[C@@H]1CC[C@]2(C(=O)OCc3cnc(C)cn3)CC[C@]3(C)[C@H](CC[C@@H]4[C@@]5(C)CCC(=O)C(C)(C)[C@@H]5CC[C@]43C)[C@@H]12 [BoAC, (5-Methylpyrazin-2-yl)-methyl-3-oxolup-20(29)-en-28-oate]",8.94 ± 1.3,> 30,11.9 ± 1.05,8.24 ± 2.43,125 to 127,8.95 ± 4.76,,,,,
C=C(C)[C@@H]1CC[C@]2(C(=O)OCCOC(=O)c3ccncn3)CC[C@]3(C)[C@H](CC[C@@H]4[C@@]5(C)CCC(=O)C(C)(C)[C@@H]5CC[C@]43C)[C@@H]12 [BoA2F],29.7 ± 0.37,12.5 ± 1.22,15.2 ± 1.07,> 30,72 to 74,> 30,,,,,
"C=C(C)[C@@H]1CC[C@]2(C(=O)OCCCCOC(=O)c3nccnc3C)CC[C@]3(C)[C@H](CC[C@@H]4[C@@]5(C)CCC(=O)C(C)(C)[C@@H]5CC[C@]43C)[C@@H]12 [BoA4B, (3-Methylpyrazin-2-acyloxy)-butyl-3-oxolup-20(29)-en-28-oate]",> 30,> 30,11.5 ± 0.93,3.92 ± 1.1,54 to 55,21.8 ± 2.46,,,,,
"C=C(C)[C@@H]1CC[C@]2(C(=O)OCc3cnccn3)CC[C@]3(C)[C@H](CC[C@@H]4[C@@]5(C)CCC(=O)C(C)(C)[C@@H]5CC[C@]43C)[C@@H]12 [BoAA, Pyrazin-2-ylmethyl-3-oxolup-20(29)-en-28-oate]",15.7 ± 0.55,> 30,18.3 ± 1.63,8.16 ± 2.08,,13.5 ± 1.8,,,,,
"C=C(C)[C@@H]1CC[C@]2(C(=O)OCCCCOC(=O)c3ccnnc3)CC[C@]3(C)[C@H](CC[C@@H]4[C@@]5(C)CCC(=O)C(C)(C)[C@@H]5CC[C@]43C)[C@@H]12 [BoA4G, (Pyridazin-2-acyloxy)-butyl-3-oxolup-20(29)-en-28-oate]",12.8 ± 0.15,16.9 ± 1.03,7.46 ± 1.99,19.4 ± 1.2,,29.27 ± 0.22,,,,,
"C=C(C)[C@@H]1CC[C@]2(C(=O)OCCCCOC(=O)c3cncc(C)n3)CC[C@]3(C)[C@H](CC[C@@H]4[C@@]5(C)CCC(=O)C(C)(C)[C@@H]5CC[C@]43C)[C@@H]12 [BoA4D, (6-Methylpyrazin-2-acyloxy)-butyl-3-oxolup-20(29)-en-28-oate]",> 30,> 30,15.7 ± 2.15,16.3 ± 0.9,,> 30,,,,,
